Assay results: publication PMC12022903, “Evaluation of drug-drug interaction between Suraxavir Marboxil (GP681) and itraconazole, and assessment of the impact of gene polymorphism” (Frontiers in Pharmacology, 2025)
Where “and” joins values, the source holds several entries; their conditions need not be identical. Equal values may be shown once. Read-outs that look alike come from different tables or passages of the source.

Experiments:
MDR1 = system: MDR1; design: method as in unpublished data; conditions: preclinical studies; ref unpublished data; cited from earlier work
cytochrome P450 (CYP) = system: cytochrome P450 (CYP); design: method as in unpublished data; conditions: preclinical studies; ref unpublished data; cited from earlier work
[1] = design: method as in Phase I study; conditions: ref Phase I study, cited from earlier work
[2] = system: avian influenza virus strains; conditions: ref unpublished data; cited from earlier work
liver enzymes = system: liver enzymes; design: method as in unpublished data; conditions: preclinical studies; ref unpublished data; cited from earlier work
OAT3 = system: OAT3; design: method as in unpublished data; conditions: preclinical studies; ref unpublished data; cited from earlier work
[3] = for GP1707D07 concentration: Period 1 GP681 monotherapy, individual subjects; for GP1707D07 concentration, Geo Mean / GP1707D07 concentration, Mean: plasma; for GP1707D07 concentration, Geo Mean: Geo Mean of subjects 301-312, Period 2 GP681-itraconazole co-administration; for GP1707D07 concentration, Mean: Mean of subjects 301-312, Period 2 GP681-itraconazole co-administration
CYP3A4 = conditions: preclinical in vitro studies; cited from earlier work
OAT1 = system: OAT1; design: method as in unpublished data; conditions: preclinical studies; ref unpublished data; cited from earlier work
[4] = design: method as in unpublished data; conditions: after oral GP681; ref unpublished data; cited from earlier work
OATP1B3 = system: OATP1B3; design: method as in unpublished data; conditions: preclinical studies; ref unpublished data; cited from earlier work
BCRP = system: BCRP; design: method as in unpublished data; conditions: preclinical studies; ref unpublished data; cited from earlier work
OATP1B1 = system: OATP1B1; design: method as in unpublished data; conditions: preclinical studies; ref unpublished data; cited from earlier work

Structure (SMILES): O=C1c2c(O)c(=O)ccn2N([C@@H]2c3ccccc3SCc3c2ccc(F)c3F)[C@@H]2COC3(CC3)CN12 [GP1707D07]
- inhibition of transport activity of MDR1 (MDR1): nor do they inhibit the transport activity
- metabolizing enzymes (cytochrome P450 (CYP)): mainly metabolized by cytochrome P450 (CYP) 1A2, CYP 2C8, and CYP 3A4
- C24 ([1]; all tested dose cohorts (20 mg–80 mg)): > 6.87 ng/mL
- time maintained above the target concentration (6.87 ng/mL) ([1]; dose cohorts 20 mg–80 mg): 72 to 136 h
- in vitro antiviral activity (average EC50 and EC90) compared with baloxavir [2]: better in vitro antiviral activity
- in vitro inhibitory activity against avian influenza virus strains [2]: inhibitory activity against all tested avian influenza virus strains
- inhibition or induction of liver enzymes (liver enzymes): do not significantly inhibit or induce liver enzymes
- inhibition of transport activity of OAT3 (OAT3): nor do they inhibit the transport activity
- time from which GP1707D07 concentrations exceed the clinical effective concentration ([3]; GP681 20 mg + itraconazole, post-dose, threshold 6.87 ng/mL): 1 h
- GP1707D07 concentration ([3]; 0.5h): 17.9 ng/mL and 0.6 ng/mL and 10.8 ng/mL and 2.8 ng/mL and 8.3 ng/mL and 1.4 ng/mL
- GP1707D07 concentration ([3]; 1h): 23.5 ng/mL and 1.8 ng/mL and 16.5 ng/mL and 6.2 ng/mL and 10.1 ng/mL and 5.6 ng/mL
- GP1707D07 concentration ([3]; 2h): 33.1 ng/mL and 4.5 ng/mL and 26.9 ng/mL and 7.2 ng/mL and 12.6 ng/mL and 9.4 ng/mL
- GP1707D07 concentration ([3]; 3h): 44.4 ng/mL and 11.9 ng/mL and 25.1 ng/mL and 6.4 ng/mL and 14.2 ng/mL and 10.4 ng/mL
- GP1707D07 concentration ([3]; 4h): 36.1 ng/mL and 13.4 ng/mL and 24.0 ng/mL and 5.7 ng/mL and 15.4 ng/mL and 11.0 ng/mL
- GP1707D07 concentration ([3]; 5h): 30.8 ng/mL and 14.9 ng/mL and 20.4 ng/mL and 7.0 ng/mL and 15.5 ng/mL and 12.0 ng/mL
- GP1707D07 concentration ([3]; 6h): 30.7 ng/mL and 18.0 ng/mL and 19.4 ng/mL and 7.0 ng/mL and 15.2 ng/mL and 11.0 ng/mL
- GP1707D07 concentration ([3]; 8h): 24.5 ng/mL and 14.2 ng/mL and 17.9 ng/mL and 6.9 ng/mL and 13.5 ng/mL and 9.5 ng/mL
- GP1707D07 concentration ([3]; 12h): 21.5 ng/mL and 12.6 ng/mL and 14.5 ng/mL and 6.6 ng/mL and 11.1 ng/mL and 8.8 ng/mL and 20.0 ng/mL
- GP1707D07 concentration ([3]; 24h): 17.5 ng/mL and 10.3 ng/mL and 12.6 ng/mL and 5.4 ng/mL and 10.1 ng/mL and 6.3 ng/mL and 14.7 ng/mL
- GP1707D07 concentration ([3]; 36h): 14.8 ng/mL and 8.1 ng/mL and 10.5 ng/mL and 4.4 ng/mL and 8.8 ng/mL and 5.4 ng/mL and 11.8 ng/mL
- GP1707D07 concentration ([3]; 48h): 12.3 ng/mL and 6.9 ng/mL and 7.4 ng/mL and 3.9 ng/mL and 6.7 ng/mL and 5.1 ng/mL and 9.0 ng/mL
- GP1707D07 concentration ([3]; 72h): 7.8 ng/mL and 5.1 ng/mL and 4.9 ng/mL and 3.2 ng/mL and 6.0 ng/mL and 3.6 ng/mL and 7.6 ng/mL
- GP1707D07 concentration ([3]; 120h): 4.8 ng/mL and 3.5 ng/mL and 3.2 ng/mL and 1.7 ng/mL and 4.0 ng/mL and 2.1 ng/mL and 3.6 ng/mL
- GP1707D07 concentration ([3]; 168h): 2.4 ng/mL and 2.0 ng/mL and 1.9 ng/mL and 1.1 ng/mL and 2.2 ng/mL and 1.3 ng/mL
- GP1707D07 concentration ([3]; 264h): 1.3 ng/mL and 1.0 ng/mL and 0.8 ng/mL and 0.7 ng/mL
- GP1707D07 concentration, Geo Mean ([3]; D26, 0.5h): 4.4 ng/mL
- GP1707D07 concentration, Geo Mean ([3]; D26, 1h): 8.5 ng/mL
- GP1707D07 concentration, Geo Mean ([3]; D26, 2h): 15.2 ng/mL
- GP1707D07 concentration, Geo Mean ([3]; D26, 3h): 17.9 ng/mL
- GP1707D07 concentration, Geo Mean ([3]; D26, 4h): 19.7 ng/mL
- GP1707D07 concentration, Geo Mean ([3]; D26, 5h): 20.9 ng/mL
- GP1707D07 concentration, Geo Mean ([3]; D26, 6h): 20.4 ng/mL
- GP1707D07 concentration, Geo Mean ([3]; D26, 8h): 19.0 ng/mL
- GP1707D07 concentration, Geo Mean ([3]; D26, 12h): 16.7 ng/mL
- GP1707D07 concentration, Geo Mean ([3]; D26, 24h): 14.9 ng/mL
- GP1707D07 concentration, Geo Mean ([3]; D26, 36h): 13.5 ng/mL
- GP1707D07 concentration, Geo Mean ([3]; D26, 48h): 12.1 ng/mL
- GP1707D07 concentration, Geo Mean ([3]; D26, 72h): 9.6 ng/mL
- GP1707D07 concentration, Geo Mean ([3]; D26, 120h): 6.8 ng/mL
- GP1707D07 concentration, Geo Mean ([3]; D26, 168h): 5.1 ng/mL
- GP1707D07 concentration, Geo Mean ([3]; D26, 264h): 3.2 ng/mL
- GP1707D07 concentration, Mean ([3]; D26, 0h): 0.0 ng/mL
- GP1707D07 concentration, Mean ([3]; D26, 0.5h): 6.4 ng/mL
- GP1707D07 concentration, Mean ([3]; D26, 1h): 10.4 ng/mL
- GP1707D07 concentration, Mean ([3]; D26, 2h): 17.0 ng/mL
- GP1707D07 concentration, Mean ([3]; D26, 3h): 19.7 ng/mL
- GP1707D07 concentration, Mean ([3]; D26, 4h): 21.3 ng/mL
- GP1707D07 concentration, Mean ([3]; D26, 5h): 22.0 ng/mL
- GP1707D07 concentration, Mean ([3]; D26, 6h): 21.6 ng/mL
- GP1707D07 concentration, Mean ([3]; D26, 8h): 20.0 ng/mL
- GP1707D07 concentration, Mean ([3]; D26, 12h): 17.6 ng/mL
- GP1707D07 concentration, Mean ([3]; D26, 24h): 15.6 ng/mL
- GP1707D07 concentration, Mean ([3]; D26, 36h): 14.2 ng/mL
- GP1707D07 concentration, Mean ([3]; D26, 48h): 12.5 ng/mL
- GP1707D07 concentration, Mean ([3]; D26, 72h): 10.1 ng/mL
- GP1707D07 concentration, Mean ([3]; D26, 120h): 7.1 ng/mL
- GP1707D07 concentration, Mean ([3]; D26, 168h): 5.4 ng/mL
- GP1707D07 concentration, Mean ([3]; D26, 264h): 3.3 ng/mL
- average ratio of GP1707D07 concentration at each time point (Period 2: Period 1) ([3]; within 24 h post-dose): 1.7–2.0
- substrate of CYP3A4 (CYP3A4): is a substrate of CYP3A4
- inhibition of transport activity of OAT1 (OAT1): nor do they inhibit the transport activity
- share of the total radioactivity in serum [4]: approximately 95.4%
- inhibition of transport activity of OATP1B3 (OATP1B3): nor do they inhibit the transport activity
- substrate for the BCRP transporter (BCRP): Neither Suraxavir Marboxil (GP681) nor its metabolite, GP1707D07, serves as substrates
- inhibition of transport activity of OATP1B1 (OATP1B1): nor do they inhibit the transport activity
